Reference: patent publication US20250195532A1, “NOVEL PHOSPHOINOSITIDE 3-KINASE (PI3K) INHIBITOR, COMPOSITIONS COMPRISING THE SAME, METHODS OF MAKING, AND METHODS OF TREATING A DISEASE” (The Curators of the University of Missouri, priority 2022, published 2025)
Values joined by “and” are separate entries in the source; they are usually repeats but may differ in a detail not shown here. Equal values may be shown once. Read-outs that look alike come from different tables or passages of the source.

Legend:
physchem = type: physicochemical
LNCaP cell line cells = test: Cellular uptake / cell killing by luminescence, LNCaP; type: cell-based; settings: Homo sapiens, FIG. 5F
Protocol: (§1) Different cell lines were seeded, incubated, and washed prior to administering a dose solution of CK-TGX-MN. Cell lines tested included LNCaP cell line, which is a cell line with epithelial-like morphology that was isolated from a metastatic lymph node a lesion of human prostate cancer; C4-2, which is a prostate cancer cell line derived from LNCaP cells that grows in the absence of androgens, yet responds to manipulation of androgen levels; GL261 cell line, which are murine glioma cells isolated from […] brain; PC-3 cell line, which is a prostate cancer cell line that is typically used as a model of androgen-independent prostate cancer; TRAMP cell line, which are epithelial cells isolated from transgenic adenocarcinoma of the mouse prostate; and Hela cell line, which is an immortalized human cell line isolated from cervical cancer cells.
(§2) The cellular uptake was measured as a function of luminescence and concentration of CK-TGX-MN, by determining the IC50 value. A decrease in luminescence observed translates to the efficacy of CK-TGX-MN in killing the cells of the respective cell culture.
Finally, moving on to FIG. 5F, the cellular uptake of CK-TGX-MN and TGX-221 in LNCaP cell line cells was measured.

Hela cell line cells = test: Cellular uptake / cell killing by luminescence, Hela; type: cell-based; settings: Homo sapiens, FIG. 5E
Protocol: as §1, §2
Moving on to FIG. 5E, the cellular uptake of CK-TGX-MN and TGX-221 in Hela cell line cells was measured.

C4-2 cell line cells = test: Cellular uptake / cell killing by luminescence, C4-2; type: cell-based; settings: Homo sapiens, C4-2 cells, FIG. 5A
Protocol: as §1, §2

TRAMP cell line cells = test: Cellular uptake / cell killing by luminescence, TRAMP; type: cell-based; settings: Mus musculus, FIG. 5D
Protocol: as §1, §2
Moving on to FIG. 5D, the cellular uptake of CK-TGX-MN and TGX-221 in TRAMP cell line cells was measured.

GL261 cell line cells = test: Cellular uptake / cell killing by luminescence, GL261; type: cell-based, murine; settings: Mus musculus, FIG. 5B
Protocol: as §1, §2

[1] = Pharmacokinetic (PK) study, IV and oral route, in mice; settings: mouse, in vivo, oral 2 mg/ml formulation vs IV 1 mg/ml formulation
Protocol: Bioavailability in Pharmacology is a measure of an amount of a drug substance that enters the circulation and becomes completely available for its intended purpose when introduced into the body. There are several delivery routes for drugs including intra-venous route (IV), oral route, subcutaneous route, rectal route, intramuscular route, vaginal route, inhaled route, and the like.
Bioavailability of CK-TGX-MN was determined in relation to a liquid formulation of CK-TGX-MN 1 mg/ml in 5% DMSO, 10%, and 85% aqueous solution. A dose amount of aqueous CK-TGX-MN was prepared for delivery through the IV route in-vivo. Additionally, a liquid formulation of CK-TGX-MN 2 mg/ml in 5% DMSO, 10%, and 85% aqueous solution was prepared for delivery of a dose amount of CK-TGX-MN through the oral route in-vivo. The pharmacokinetic (PK) studies were performed in mice. As shown in graph 302 of FIG. 3B, the depicted example mice had similar clearance of IV delivered CK-TGX-MN over time.

PI3Kβ isoform = PI3Kβ isoform (Homo sapiens, UniProt P42338); test: Inhibition of PI3Kβ isoform, dose response curves (FIG. 4B); type: biochemical
PC-3 cell line cells = test: Cellular uptake / cell killing by luminescence, PC-3; type: cell-based; settings: Homo sapiens, PC-3 cells, FIG. 5C
Protocol: as §1, §2
Moving on to FIG. 5C, the cellular uptake of CK-TGX-MN and TGX-221 in PC-3 cell line cells was measured.

[2] = background statement, cited from earlier work

Chain of PI3Kβ isoform (P42338 whole entry, canonical isoform): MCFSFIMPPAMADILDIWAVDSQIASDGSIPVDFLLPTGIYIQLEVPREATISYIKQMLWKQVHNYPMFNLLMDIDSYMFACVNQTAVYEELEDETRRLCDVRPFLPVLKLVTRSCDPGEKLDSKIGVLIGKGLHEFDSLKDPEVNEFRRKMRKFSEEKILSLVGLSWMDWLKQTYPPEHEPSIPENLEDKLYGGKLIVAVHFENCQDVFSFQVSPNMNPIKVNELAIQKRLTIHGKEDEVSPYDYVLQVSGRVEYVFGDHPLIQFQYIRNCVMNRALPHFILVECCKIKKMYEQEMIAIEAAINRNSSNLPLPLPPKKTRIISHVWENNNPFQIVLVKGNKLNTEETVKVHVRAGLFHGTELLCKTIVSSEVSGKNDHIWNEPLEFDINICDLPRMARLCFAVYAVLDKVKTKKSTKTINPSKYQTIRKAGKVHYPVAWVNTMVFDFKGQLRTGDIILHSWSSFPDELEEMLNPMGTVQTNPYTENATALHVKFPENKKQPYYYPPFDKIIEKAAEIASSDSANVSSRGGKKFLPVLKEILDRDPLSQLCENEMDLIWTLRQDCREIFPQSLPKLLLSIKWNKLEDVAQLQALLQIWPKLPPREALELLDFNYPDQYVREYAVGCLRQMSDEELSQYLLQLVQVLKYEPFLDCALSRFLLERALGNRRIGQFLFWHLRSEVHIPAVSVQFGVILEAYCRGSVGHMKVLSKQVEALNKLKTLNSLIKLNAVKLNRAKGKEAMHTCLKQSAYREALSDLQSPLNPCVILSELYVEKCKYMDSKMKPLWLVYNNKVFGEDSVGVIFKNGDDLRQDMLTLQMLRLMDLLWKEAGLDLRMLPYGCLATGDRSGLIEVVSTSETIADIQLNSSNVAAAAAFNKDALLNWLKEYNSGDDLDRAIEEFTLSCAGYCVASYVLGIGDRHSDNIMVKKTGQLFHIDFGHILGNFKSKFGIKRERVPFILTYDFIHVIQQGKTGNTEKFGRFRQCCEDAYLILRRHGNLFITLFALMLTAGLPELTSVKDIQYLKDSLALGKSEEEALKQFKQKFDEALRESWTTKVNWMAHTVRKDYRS
Chain of PI3Kβ isoform (P27986 whole entry partner, canonical isoform): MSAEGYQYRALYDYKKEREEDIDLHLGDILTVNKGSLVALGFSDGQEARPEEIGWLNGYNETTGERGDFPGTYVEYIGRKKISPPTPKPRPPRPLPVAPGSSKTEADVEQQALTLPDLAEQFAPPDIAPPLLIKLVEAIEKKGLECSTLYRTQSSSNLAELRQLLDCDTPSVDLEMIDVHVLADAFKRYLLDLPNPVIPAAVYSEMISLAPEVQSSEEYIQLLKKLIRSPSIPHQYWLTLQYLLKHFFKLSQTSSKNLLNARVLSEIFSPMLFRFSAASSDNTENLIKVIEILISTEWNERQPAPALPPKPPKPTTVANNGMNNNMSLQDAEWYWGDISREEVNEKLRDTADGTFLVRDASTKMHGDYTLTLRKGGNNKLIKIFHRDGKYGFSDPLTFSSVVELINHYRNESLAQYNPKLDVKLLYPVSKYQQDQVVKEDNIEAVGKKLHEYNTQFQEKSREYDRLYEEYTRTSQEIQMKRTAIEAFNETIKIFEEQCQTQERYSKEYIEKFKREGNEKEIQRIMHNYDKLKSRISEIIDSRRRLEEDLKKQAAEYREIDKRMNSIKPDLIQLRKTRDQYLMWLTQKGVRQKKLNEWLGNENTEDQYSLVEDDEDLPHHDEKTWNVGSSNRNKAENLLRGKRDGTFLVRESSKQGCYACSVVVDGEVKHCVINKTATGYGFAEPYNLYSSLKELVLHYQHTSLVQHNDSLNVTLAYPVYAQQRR

For `Cc1cc(C(C)N(CCN)c2ccccc2)c2nc(N3CCOCC3)cc(=O)n2c1` (stereo not drawn) [CK-TGX-MN, 9-(1-((2-aminoethyl)(phenyl)amino)ethyl)-7-methyl-2-morpholino-4H-pyrido[1,2-a]pyrimidin-4-one], the solubility (physchem) was 4630 µg/mL and 11400 µM, the IC50 (LNCaP cell line cells) was 6.39 µM and the IC50 (Hela cell line cells) was 23.9 µM. The IC50 (C4-2 cell line cells) was 15.8 µM, the IC50 (TRAMP cell line cells) was 17.2 µM and the IC50 (GL261 cell line cells) was 13.5 µM. The bioavailability [1] was about 6.4%, the IC50 (PI3Kβ isoform) was 0.00948 µM and the IC50 (PC-3 cell line cells) was 24.4 µM.
In the case of `Cc1cc(C(C)Nc2ccccc2)c2nc(N3CCOCC3)cc(=O)n2c1` (stereo not drawn) [TGX-221, 7-methyl-2-(4-morpholinyl)-9-[1-(phenylamino)ethyl]-4H-pyrido[1,2-a]pyrimidin-4-one], the solubility (physchem) is listed as 90 µg/mL and 250 µM, the solubility [2] is listed as under 1000 µg/mL and the “Log D7.4” value ([2]; pH 7.4) is listed as 3.6. It also gave an IC50 (LNCaP cell line cells) of 30.5 µM, an IC50 (Hela cell line cells) of 69.7 µM and an IC50 (C4-2 cell line cells) of 93.2 µM. It also gave an IC50 (TRAMP cell line cells) of 81.2 µM, an IC50 (GL261 cell line cells) of 42 µM and an IC50 (PC-3 cell line cells) of 156 µM.
